Test results reported in US8003688B2, “Method of treating symptoms of common cold, allergic rhinitis and infections relating to the respiratory tract” (ImmuPharm Aps, priority 2000, dated 2011).

Assays:
[1] = system: Rhino Virus (1A, 15 or 39); assay: Potentiation of interferon antiviral activity vs. rhino virus in WISH cells; format: cell-based, rhinovirus; conditions: Troxerutin levels below 2.5 mg/ml added with 2-fold dilutions of interferon
Method: 3.000 WISH cells were seeded in a microtray and on the following morning, the medium was replaced with 2-fold dilutions (from a 0-30 units/ml stock solution) of HuIFN-α-2b (Intron A) in fresh medium comprising 2% serum. After incubation overnight, the medium was replaced with fresh medium comprising challenge virus and incubated at 33° C., 5% CO2 for 3-5 days and processed further as described in Example 2.
(§1) An experiment similar to Example 3 was carried out in which various, but constant concentrations of either Troxerutin or Veneruton or other relevant derivatives were added together with the 2-fold dilutions of interferon to WISH cells. A typical example from this series of experiments yielded no potentiation of the interferon system, (<1%) at all at Troxerutin levels below 2.5 mg/ml. Troxerutin concentrations higher than 2.5 mg/ml are toxic to the cells.

WISH cells = assay: Toxicity to WISH cells; format: cell-based
Method: as §1

[2] = system: rhinovirus (1A, 15 or 39); assay: Antiviral activity against rhinovirus in WISH cells measured via the MTS-system; format: cell-based; conditions: challenge virus, MTS read-out, Quercetin at levels not toxic to the cells
Method: Rhinovirus 1A, rhinovirus 15 and rhinovirus 39 were titrated according to the tetra zolium salt (MTS)-method (Berg et al., 1989; Berg and Owen, 2001a, Hansen et al., 1989). WISH cells were seeded in a micro tray at 3000 cells per well and incubated at 37° C., 5% CO2 overnight; the following morning the medium Was replaced with 10-fold dilutions of either rhinovirus 1A, rhinovirus 15 or rhinovirus 39, respectively, in fresh medium and the trays were incubated 4-5 days at 33° C.; a microscopical examination confirmed that the CytoPathogenic Effect (CPE) was fully developed (CPE equal to 100%). […] To quantitate the CPE in terms of % destruction, MTS (Berg and Owen, 2001a) was added to all cultures and after 3 h incubation at 37° C. (without CO2) the trays were read in a scanner as previuosly described (Berg et al, 1989, Hansen et al., 1989). […]
WISH cells were seeded in wells in a microtray and incubated for 24 h at 34° C., 5% CO2; the medium was replaced with fresh medium comprising 2-fold dilutions of ZnGluconate (diluted 1:10 from a 1% stock dilutions) and incubated further for […] at 33° C., 5% CO2; on the following day challenge virus was added and after 3-5 days at 33° C., 5% , CO2, MTS was added and the microtray was measured in an OD-scanner (Berg et al., 1989; Hansen et al., 1989). […]

| SMILES | potentiation of the interferon system [1] [%] | concentrations toxic to the cells (WISH cells) | protection against rhinovirus [2] [%] |
| --- | --- | --- | --- |
| C[C@@H]1O[C@@H](OC[C@H]2O[C@@H](Oc3c(-c4ccc(OCCO)c(OCCO)c4)oc4cc(OCCO)cc(O)c4c3=O)[C@H](O)[C@@H](O)[C@@H]2O)[C@H](O)[C@H](O)[C@H]1O [Troxerutin, troxerutin] | < 1 | higher than 2.5 mg/ml |  |
| O=C([O-])[C@H](O)[C@@H](O)[C@H](O)[C@H](O)CO.O=C([O-])[C@H](O)[C@@H](O)[C@H](O)[C@H](O)CO.[Zn+2] [ZnGluconate] |  |  | < 2 |
